Here are results for two compounds from patent US4738965A, “2-oxo-4-(2'-difl uoromethylthiophenyl)-5-methoxycarbonyl-6-methyl-1,2,3,4-tetrahydropyrimi dine” (Institut Organischskogo Sinteza Akademii Nauk SSR, priority 1987, dated 1988).

As a reminder, the LD50 is the dose expected to kill half of the subjects tested. Low readings indicate a more toxic substance, high ones a less toxic substance.

One data set in a line: Acute toxicity in mice. To be noted: mouse, in vivo, ip.
For data set [1], the system named is Coronary Blood Flow (descending branch of the left coronary artery). In words: Coronary dilating activity: coronary blood flow in narcotized dogs with open thoracic cavity. The class given is in vivo. As to conditions: for ED (50% increase): Canis lupus familiaris, read-out: Dose increasing coronary blood flow by 50%. Here is the method: The experiments have been conducted on narcotized dogs with the open thoracic cavity. The blood flow was registered in the descending branch of the left coronary artery.
The blood flow was determined before and after the injection of the proposed compounds. The proposed compound was introduced in a single dose, intravenously, followed by calculating the increase in the coronary blood flow in percent.

A further data set deals with Arterial Pressure. The data set can be described thus: Hypotensive activity in spontaneously-hypertensive rats. The class given is in vivo, spontaneously-hypertensive rats (SHR) of Okamoto-Aoki line. To be noted: SHR, single 10 mg/kg dose into the stomach; for Hypotensive activity: Table 2. Here is the method: The experiments were conducted on spontaneously-hypertensive rats (SHR) of Okamoto-Aoki line.

The test system of data set [2] is coronary dilating activity. To be noted: clinical practice, in words; cited from earlier work.
For data set [3] the following is noted: large doses, in words; cited from earlier work.
A further data set relates to mongrel white mice. The data set can be described thus: Acute toxicity in mice. To be noted: ratio versus nifedipin and papaverine.
A short description of another data set: in vivo. As to conditions: mouse, ip.
Data set [4] concerns systemic arterial pressure and cardiac output. The data set can be described thus: Systemic arterial pressure and cardiac output in narcotized dogs. The class given is in vivo. As to conditions: 0.01-0.1 mg/kg, intravenous.
The next data set is described as follows: Chemical stability. The class given is physicochemical.
The next data set is described as follows: Solubility. The class given is physicochemical.
[5] abbreviates: 0.1 mg/kg, single dose, intravenous, narcotized dogs.
Where [6] appears, read: 0.5 mg/kg, single dose, intravenous, narcotized dogs.
The mark [7] stands for this setting: 0.01 mg/kg, single dose, intravenous, narcotized dogs.

Each structure is given as a SMILES string. Like-named read-outs stand apart in the source and are kept apart here. Where only a bound is given, the exact number is not on record here.

For the compound `COc1ccc(Cc2nccc3cc(OC)c(OC)cc23)cc1OC` [Papaverine, reference compound], the LD50 at 336 h in “Acute toxicity in mice” was 91 mg/kg. Also, in [1] (setting [5]), the Duration of effect is given as 5 min and the “Increase of coronary blood flow” value is reported as 20%. Further, in [1] (setting [6]), the Duration of effect was 7 min and the “Increase of coronary blood flow” value is reported as 30%. In data set [1] (iv), the ED (50% increase) was determined as 0.9 mg/kg. Further, in the data set with Arterial Pressure, the “Duration of hypotensive effect” value came out at 3 h, the “Effect on arterial pressure (in words)” value is “insignificant effect on arterial pressure”, the “Reduction of (systolic) arterial pressure” value came to 5% and the Hypotensive activity is given as 5. Moreover, the Coronary dilating activity entry in data set [2] is reported as “low coronary dilating activity”. The Toxicity entry in data set [3] is “rather high”.
As for `COC(=O)C1=C(C)NC(=O)NC1c1ccccc1SC(F)F` (stereo not shown) [Proposed compound, 2-oxo-4-(2'-difluoromethylthiophenyl)-5-methoxycarbonyl-6-methyl-1,2,3,4-tetrahydropyrimidine], in the data set on mongrel white mice, the “Toxicity, times lower than that of nifedipin and papaverine” value is reported as 10-20 times. The 50% lethal dose (LD50) at 336 h in the data set “in vivo” was > 2000 mg/kg. In [1] (0.001 mg/kg, single dose, intravenous, narcotized dogs), the “Increase of coronary blood flow” value came out at 19%. Also, in [1] (setting [7]), the Duration of effect is recorded as 35 min and the “Increase of coronary blood flow” value was found to be 79%. In [1] (setting [5]), the Duration of effect is 60 min and the “Increase of coronary blood flow” value is recorded as 107%. Further, the ED (50% increase) in data set [1] (single dose, intravenous, narcotized dogs) came out at 0.006 mg/kg. The “Duration of effect compared with nifedipin” value in data set [1] (ratio versus nifedipin) came out at 1.7 times. The “Strong and prolonged vasodilating effect with relation to coronary vessels, compared with nifedipin” value in data set [1] (ratio versus nifedipin (summary)) stood at 1.7 times. In [1] (ratio versus papaverine), the “Coronary dilating activity compared with papaverine, by doses” value came out at 150 times and the “Duration of effect compared with papaverine” value is recorded as “over 10 times”. In [1] (ratio versus papaverine (summary)), the “Strong and prolonged vasodilating effect with relation to coronary vessels, compared with papaverine” value is “about 10 times”. In [1] (versus nifedipin, in words), the “Coronary dilating effect compared with nifedipin” value was “approximately equal in activity to nifedipin”. The “Change of systemic arterial pressure and cardiac output” value in data set [4] was “did not change the systemic arterial pressure and the cardiac output”. In the data set with Arterial Pressure, the “Duration of hypotensive effect” value amounted to 6 h, the “Effect on arterial pressure (in words)” value was “no substantial effect on arterial pressure”, the “Reduction of (systolic) arterial pressure” value stood at 8% and the Hypotensive activity came out at 8. Further, in “Chemical stability”, the Chemical stability result was “chemically stable”. The “Solubility in organic solvents” value in “Solubility” (ethyl alcohol, acetone, chloroform and other organic solvents) is “comparatively easily-soluble in ethyl alcohol, acetone, chloroform and other organic solvents”. In the data set “Solubility” (water), the Solubility in water result was “insoluble in water”.
